For this assay, the system named is P388 leukemia ip, CD2F1 mice, survival T/C. In words: NCI In Vivo Anticancer Drug Screen. Data for tumor model P388 Leukemia (intraperitoneal) in CD2F1 (CDF1) mice. The following applies: endpoint: median survival time, higher = longer survival. In a few lines:
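Mice carrying the transplanted tumor received test compound or vehicle. Survival was recorded in each group, and the value is the treated-group measurement divided by that of the vehicle-treated control group.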

Where [1] appears, read: dose: 50.0 mg/kg/injection, schedule: Q01DX005 (ip), vehicle: saline with Tween-80.
The mark [2] stands for this setting: dose: 100.0 mg/kg/injection, schedule: Q01DX005 (ip), vehicle: saline with Tween-80.
The mark [3] stands for this setting: dose: 60.0 mg/kg/injection, schedule: Q01DX005 (ip), vehicle: saline with Tween-80.
Where [4] appears, read: dose: 120.0 mg/kg/injection, schedule: Q01DX005 (ip), vehicle: saline with Tween-80.
[5] abbreviates: dose: 240.0 mg/kg/injection, schedule: Q01DX005 (ip), vehicle: saline with Tween-80.
[6] abbreviates: dose: 200.0 mg/kg/injection, schedule: Q01DX005 (ip), vehicle: saline with Tween-80.

Where “and” joins values, the source holds several entries; their conditions need not be identical. Identical values can stand only once. Inconclusive results and toxic doses are left out.

For `COc1ccc2nc(N/N=C/c3ccccn3)cc(C)c2c1`, the T/C by setting is: (dose: 25.0 mg/kg/injection, schedule: Q01DX005 (ip), vehicle: saline with Tween-80) 103 % of control; under setting [1], 110 % of control and 112 % of control; under setting [2], 103 % of control.

Take `Cc1cc(C)c(OC(=O)N(CCCl)N=O)c(C)c1`: the T/C (dose: 3.12 mg/kg/injection, schedule: Q01DX001 (ip), vehicle: saline with Tween-80) was 111 % of control and the T/C (dose: 6.25 mg/kg/injection, schedule: Q01DX001 (ip), vehicle: saline with Tween-80) was 116 % of control.

Take `O=C(O)CCCCOC(C[N+](=O)[O-])C(Cl)(Cl)Cl` (configuration not stated): the T/C by setting is: (dose: 50.0 mg/kg/injection, schedule: Q01DX009 (ip), vehicle: saline with Tween-80) 100 % of control; (dose: 100.0 mg/kg/injection, schedule: Q01DX009 (ip), vehicle: saline with Tween-80) 95 % of control; (dose: 200.0 mg/kg/injection, schedule: Q01DX009 (ip), vehicle: saline with Tween-80) 99 % of control.

Consider `C/C=C(/CN/C(=C\[N+](=O)[O-])c1ccccc1)c1ccccc1`, for which the T/C under setting [3] was 102 % of control, the T/C under setting [4] was 100 % of control and the T/C under setting [5] was 95 % of control.

For the compound `CC(/C=N/Nc1ccccc1)=N\N=c1/scc(-c2ccc(C)cc2)n1C1CCCCC1`, the T/C reads like this: under setting [1], 94 % of control; under setting [2], 96 % of control; under setting [6], 89 % of control.

Regarding `CSc1nnc(CCC(=O)Nc2cc(Cl)c(Cl)cc2Cl)o1`, the T/C was 106 % of control under setting [3], 105 % of control under setting [4] and 98 % of control under setting [5].

In the case of `CC(=O)OCC1OC(Nc2[nH]c(=O)[nH]c(=O)c2N=O)C(OC(C)=O)C(OC(C)=O)C1OC(C)=O` (configuration not stated), the T/C by setting is: (dose: 60.0 mg/kg/injection, schedule: Q01DX005 (ip), vehicle: saline) 111 % of control; (dose: 120.0 mg/kg/injection, schedule: Q01DX005 (ip), vehicle: saline) 103 % of control; (dose: 240.0 mg/kg/injection, schedule: Q01DX005 (ip), vehicle: saline) 103 % of control.

As to `COc1cc(/C=C/C(=O)NCCCCN=[N+]=[N-])ccc1OCc1ccccc1`, the T/C is 93 % of control under setting [3], 96 % of control under setting [4] and 97 % of control under setting [5].

`O=S(=O)(Nc1ccc(Cl)cc1)c1ccc(F)cc1`: the T/C under setting [3] is 101 % of control, the T/C under setting [4] was 100 % of control and the T/C under setting [5] is 99 % of control.

Take `CC1N=C(SCc2c(F)cccc2Cl)N2C(C)N=C(SCc3c(F)cccc3Cl)N12` (configuration not stated): the T/C is 96 % of control under setting [1], 96 % of control under setting [2] and 93 % of control under setting [6].

Take `Cc1cc(N)nc(=O)n1COCCOCc1ccccc1`: the T/C reads like this: (dose: 100.0 mg/kg/injection, schedule: Q04DX002 (ip), vehicle: Klucel (hydroxypropylcellulose) (HPC)) 103 % of control; (dose: 200.0 mg/kg/injection, schedule: Q04DX002 (ip), vehicle: Klucel (hydroxypropylcellulose) (HPC)) 106 % of control; (dose: 400.0 mg/kg/injection, schedule: Q04DX002 (ip), vehicle: Klucel (hydroxypropylcellulose) (HPC)) 98 % of control.

As to `O=S(=O)(Nc1ccc(O)c(Cl)c1)c1ccccc1`, the T/C reads like this: (dose: 100.0 mg/kg/injection, schedule: Q04DX003 (ip), vehicle: saline with Tween-80) 100 % of control; (dose: 200.0 mg/kg/injection, schedule: Q04DX003 (ip), vehicle: saline with Tween-80) 100 % of control; (dose: 400.0 mg/kg/injection, schedule: Q04DX003 (ip), vehicle: saline with Tween-80) 100 % of control.

`CCOCCN1CCN(CCCN2c3ccccc3Sc3ccc(C(F)(F)F)cc32)CC1`: the T/C (dose: 6.25 mg/kg/injection, schedule: Q04DX003 (ip), vehicle: saline) is 104 % of control and 88 % of control; the T/C (dose: 12.5 mg/kg/injection, schedule: Q04DX003 (ip), vehicle: saline) is 110 % of control and 118 % of control; the T/C (dose: 25.0 mg/kg/injection, schedule: Q04DX003 (ip), vehicle: saline) was 115 % of control.

For the compound `C[N+](C)(C)NC1OC(C(O)S(=O)(=O)O)C(OCc2ccccc2)C(OCc2ccccc2)C1O` (configuration not stated), the T/C reads like this: (dose: 50.0 mg/kg/injection, schedule: Q01DX009 (ip), vehicle: saline) 104 % of control; (dose: 100.0 mg/kg/injection, schedule: Q01DX009 (ip), vehicle: saline) 106 % of control.

Take `CCOC(=O)c1cc2cc3c4c(c2oc1=O)CCCN4CCC3`: the T/C was 106 % of control (dose: 12.5 mg/kg/injection, schedule: Q01DX005 (ip), vehicle: Klucel (hydroxypropylcellulose) (HPC)); 110 % of control (dose: 25.0 mg/kg/injection, schedule: Q01DX005 (ip), vehicle: Klucel (hydroxypropylcellulose) (HPC)); 107 % of control and 111 % of control (dose: 50.0 mg/kg/injection, schedule: Q01DX005 (ip), vehicle: Klucel (hydroxypropylcellulose) (HPC)).

As to `CCC(C)([N+](=O)[O-])[N+](=O)[O-]`, the T/C reads like this: (dose: 0.19 mg/kg/injection, schedule: Q01DX009 (ip), vehicle: Klucel (hydroxypropylcellulose) (HPC)) 102 % of control; (dose: 0.39 mg/kg/injection, schedule: Q01DX009 (ip), vehicle: Klucel (hydroxypropylcellulose) (HPC)) 97 % of control; (dose: 0.78 mg/kg/injection, schedule: Q01DX009 (ip), vehicle: Klucel (hydroxypropylcellulose) (HPC)) 99 % of control and 96 % of control.

Take `C/C(=N\NC(=S)Nc1ccc(C(=O)O)cc1)c1nccc2ccccc12`: the T/C by setting is: under setting [1], 100 % of control; under setting [2], 90 % of control; under setting [6], 90 % of control.

As to `O=C(Oc1c(F)c(F)c(F)c(F)c1F)N(CCCl)CCCl`, the T/C runs as follows: (dose: 100.0 mg/kg/injection, schedule: Q01DX001 (ip), vehicle: Klucel (hydroxypropylcellulose) (HPC)) 101 % of control; (dose: 200.0 mg/kg/injection, schedule: Q01DX001 (ip), vehicle: Klucel (hydroxypropylcellulose) (HPC)) 104 % of control; (dose: 400.0 mg/kg/injection, schedule: Q01DX001 (ip), vehicle: Klucel (hydroxypropylcellulose) (HPC)) 94 % of control.

For the origin of these results see PubChem BioAssay AID330 (DTP/NCI, 2004).
